Experimental data as given in patent US9714213B2, “4-aminomethylbenzoic acid derivative” (TOA EIYO LTD., priority 2013, dated 2017).
Like-named read-outs stand apart in the source and are kept apart here.

Legend:
[1] = target: T1, human sGC (Homo sapiens, UniProt Q02153); assay: Maximum effect of sGC activation (intracellular Ca2+, Fura2-AM) in CHO-K1 cells stably expressing human sGC and mouse CNGA2; format: cell-based; conditions: increase rate of sGC activity vs DMSO control, test compound 10 μmol/L
T1 construct: expressed in transfected cells; host or cells: CHO-K1 (Chinese hamster ovary) cells
T1 sequence (Q02153 1-619): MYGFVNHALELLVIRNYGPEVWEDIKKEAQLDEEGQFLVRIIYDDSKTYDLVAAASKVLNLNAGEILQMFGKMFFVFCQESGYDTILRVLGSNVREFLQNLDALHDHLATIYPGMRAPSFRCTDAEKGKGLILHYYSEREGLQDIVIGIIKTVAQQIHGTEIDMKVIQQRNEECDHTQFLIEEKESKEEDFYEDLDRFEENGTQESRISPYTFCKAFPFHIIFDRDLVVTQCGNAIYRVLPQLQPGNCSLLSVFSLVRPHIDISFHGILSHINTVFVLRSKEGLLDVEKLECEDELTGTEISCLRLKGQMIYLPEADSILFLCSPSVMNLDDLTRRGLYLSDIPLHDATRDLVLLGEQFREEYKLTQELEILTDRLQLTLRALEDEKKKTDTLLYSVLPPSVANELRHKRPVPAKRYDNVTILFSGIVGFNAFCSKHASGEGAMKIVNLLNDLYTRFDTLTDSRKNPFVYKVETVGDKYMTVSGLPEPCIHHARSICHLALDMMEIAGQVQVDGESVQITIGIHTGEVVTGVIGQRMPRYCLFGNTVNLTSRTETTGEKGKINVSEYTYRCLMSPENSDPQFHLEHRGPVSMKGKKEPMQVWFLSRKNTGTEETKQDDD
T1 sequence (Q02108 1-690 partner): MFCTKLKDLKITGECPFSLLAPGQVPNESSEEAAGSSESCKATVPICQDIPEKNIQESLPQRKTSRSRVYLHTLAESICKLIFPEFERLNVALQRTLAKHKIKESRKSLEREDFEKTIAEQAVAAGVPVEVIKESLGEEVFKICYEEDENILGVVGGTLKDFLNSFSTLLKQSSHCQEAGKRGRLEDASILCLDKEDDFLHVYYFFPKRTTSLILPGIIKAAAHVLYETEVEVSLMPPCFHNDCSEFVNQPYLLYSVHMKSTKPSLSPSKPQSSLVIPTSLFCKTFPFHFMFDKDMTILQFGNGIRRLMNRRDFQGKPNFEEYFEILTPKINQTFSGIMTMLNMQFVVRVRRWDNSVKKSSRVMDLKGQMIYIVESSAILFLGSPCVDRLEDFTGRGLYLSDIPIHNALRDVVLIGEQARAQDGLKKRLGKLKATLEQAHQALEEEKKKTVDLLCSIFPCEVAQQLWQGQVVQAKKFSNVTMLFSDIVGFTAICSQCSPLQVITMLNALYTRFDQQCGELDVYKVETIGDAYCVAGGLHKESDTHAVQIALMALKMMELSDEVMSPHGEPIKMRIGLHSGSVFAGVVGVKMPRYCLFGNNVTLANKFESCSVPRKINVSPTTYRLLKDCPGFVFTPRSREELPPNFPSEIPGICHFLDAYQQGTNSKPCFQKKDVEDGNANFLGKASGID
Experimental: For the assay, chinese hamster ovary cells (CHO-K1 cells) stably expressing both α and β subunits of human sGC and mouse cyclic nucleotide-gated channel (CNGA2) were used.
The CHO-K1 cells stably expressing human sGC and mouse CNGA2 was cultured at 37° C. on F-12 medium containing 10% (v/v) fetal bovine serum (FBS), penicillin (100 U/mL), streptomycin (100 μg/mL), G418 (250 μg/mL) and Zeocin (250 μg/mL). The cells were suspended in a culture medium, seeded on a 96 well plate, and then cultured at 37° C. for 24 hours. The cells were washed with Assay buffer 1 (140 mmol/L sodium chloride, 5 mmol/L potassium chloride, 0.5 mmol/L magnesium chloride, 0.01 mmol/L calcium chloride, 10 mmol/L glucose, 0.4 mmol/L magnesium sulfate, 10 mmol/L 4-(2-hydroxyethyl)piperazin-1-ylethanesulfonic acid and 125 μmol/L sulfinpyrazone, pH 7.4), and then added a solution containing Fura2-AM, a fluorescent Ca^2+ indicator, in Assay buffer 1 at […] concentration thereto as an indicator solution, and cultured at 37° C. for 60 minutes. The culture medium was removed, and the cells were washed with Assay buffer 1, and then added a solution containing the test compound thereto, and cultured at room temperature for 10 minutes. A plate was placed onto a fluorometer (FlexStation II, Molecular Devices), and the intracellular calcium concentration was determined as the ratio of fluorescent intensity, obtained from measurement using 340 nm and 380 nm as excitation wavelength and 510 nm as detection wavelength.
The solution of the test compound was prepared by dissolving each test compound in DMSO at 10 mmol/L, and then diluting the solution for the test concentration at 10 μmol/L with Assay buffer (140 mmol/L sodium chloride, 5 mmol/L potassium chloride, 0.5 mmol/L magnesium chloride, 1 mmol/L calcium chloride, 10 mmol/L glucose, 0.4 mmol/L magnesium sulfate, 10 mmol/L 4-(2-hydroxyethyl)piperazin-1-ylethanesulfonic acid, […] sulfinpyrazone, 100 μmol/L isobutyl methyl xanthine, and 10 μmol/L 1H-[1,2,4]-oxadiazol[4,3-a]quinoxaline-1-one (hereinafter, ODQ), pH 7.4). The evaluation in the absence of ODQ was performed similarly, except that ODQ was not added to Assay buffer 2. As a control solution, a DMSO solution was used instead of the test compound solution.
The activity of the test compound defined as the increase rate of the sGC activity (%) at the time of adding the solution of the test compound with respect to the sGC activity at the time of adding the control solution, was calculated by dividing the fluorescent intensity ratio at the time of adding the test compound by the fluorescent intensity ratio of the control solution, and subtracting the sGC activity at the time of adding the control solution (100%).
If sGC is activated in this assay, intracellular cGMP concentration increases and accordingly intracellular Ca^2+ concentration is increased by opening of CNGA2. Accordingly, sGC activation can be measured as the change of Ca^2+ concentration in the cell. […] Accordingly, it is possible to evaluate maximum sGC activation effect including heme-dependent activation in the absence of ODQ, and also possible to evaluate heme independent sGC activation effect in the presence of ODQ.

[2] = tested on: rat ventral aorta; assay: Blood vessel relaxation activity, phenylephrine-contracted rat ventral aorta ring specimen; conditions: relaxation of 1 μmol/L phenylephrine contraction; EC50 without ODQ / EC50 with 10 μmol/L ODQ
Experimental: A representative compound of the present invention was assayed for blood vessel relaxation activity according to the Test Example described below. In the assay, a rat (male, SD) was phlebotomized from the upper part of the heart under pentobarbital (30 mg/kg) anesthesia, and the ventral aorta was extracted. The connective tissue adhering around the blood vessel in the ventral aorta was removed in an ice-cooled Krebs-Henseleit solution (KH solution) (118 mmol/L sodium chloride, 4.7 mmol/L potassium chloride, 1.2 mmol/L magnesium sulfate, 1.2 mmol/L potassium dihydrogenphosphate, 25 mmol/L sodium hydrogen carbonate, 2.5 mmol/L calcium chloride and 10 mmol/L glucose, pH 7.4). Then, a ring specimen of 2 mm length was prepared, and fixed in 5 mL organ bath filled with the KH solution. The KH solution was maintained at 37° C., and a mixed gas of 95% O2 and 5% CO2 was ventilated. The specimen was stabilized with 1 g of the resting tension for 1 hour. In the meantime, the KH solution was exchanged twice. The tension of the specimen was recorded with a multichannel recorder through a pickup and an amplifier. After stabilization of the specimen, contraction was induced with 1 μmol/L phenylephrine (Phe), and cumulative administration of each compound (0.001, 0.01, 0.03, 0.1, 0.3, 1, 3, 10, 30, 100, 1000, 10000 nmol/L) was carried out. In the case of evaluation at the time of containing ODQ, 10 μmol/L ODQ was added 10 minutes before administration of Phe, and similar evaluation was performed.
EC50 value was calculated by Four-parameter Logistic Model with Assay Explorer (Accelrys, Inc.). Meanwhile, the solution of the test compound was prepared by dissolving the compound in DMSO to prepare solutions having the concentration of each test compound 1000 times higher than the final concentration.

[3] = 10 μmol/L ODQ present, read-out: Emax (%) ODQ+ (Heme-independent)
[4] = absence of ODQ, read-out: Emax (%) ODQ− (Heme-dependent)

For `CC(C)(CCCN(Cc1ccc(C(=O)O)cc1)CC(OCc1ccc(CCc2ccccc2)cc1)c1ccccc1)C(=O)O` (stereo not drawn) [Example 16, 4-{[N-(4-Carboxy-4-methylpentyl)-N-[2-[4-(2-phenylethyl)benzyloxy]-2-phenylethyl]amino]methyl}benzoic acid], the Emax at 10 µM [1, 3] was 132%, the Emax at 10 µM [1, 4] was 92.4% and the “EC50 Ratio (ODQ−/ODQ+)” value [2] was 8.31.
`O=C(O)CCCCN(Cc1ccc(C(=O)O)cc1)CC(OCc1ccc(CCc2ccccc2)cc1)c1cccs1` (stereo not drawn) [Example 19] was tested, and the Emax at 10 µM [1, 3] was 122%, the Emax at 10 µM [1, 4] was 114% and the “EC50 Ratio (ODQ−/ODQ+)” value [2] was 6.20.
With `Cc1cccc(C(CN(CCCCC(=O)O)Cc2ccc(C(=O)O)cc2)OCc2ccc(CCc3ccccc3)cc2)c1` (stereo not drawn) [Example 23, 4-{[N-(4-Carboxybutyl)-N-[2-(3-methylphenyl)-2-[4-(2-phenylethyl)benzyloxy]ethyl]amino]methyl}benzoic acid] the Emax at 10 µM [1, 3] was 113%, the Emax at 10 µM [1, 4] was 132% and the “EC50 Ratio (ODQ−/ODQ+)” value [2] was 6.88.
For `O=C(O)CCCCN(Cc1ccc(C(=O)O)cc1)CC(OCc1ccc(CCc2ccccc2)s1)c1ccccc1` (stereo not drawn) [Example 25, 4-{[N-(4-Carboxybutyl)-N-[2-[5-(2-phenylethyl)thiophen-2-ylmethoxy]-2-phenylethyl]amino]methyl}benzoic acid], the Emax at 10 µM [1, 3] was 114%, the Emax at 10 µM [1, 4] was 130% and the “EC50 Ratio (ODQ−/ODQ+)” value [2] was 2.61.
With `O=C(O)CCCCN(Cc1ccc(C(=O)O)cc1)CC(OCc1ccc(CCc2ccccc2)cc1)c1ccsc1` (stereo not drawn) [Example 26, 4-{[N-(4-Carboxybutyl)-N-[2-[4-(2-phenylethyl)benzyloxy]-2-(3-thienyl)ethyl]amino]methyl}benzoic acid] the Emax at 10 µM [1, 3] was 110%, the Emax at 10 µM [1, 4] was 92.6% and the “EC50 Ratio (ODQ−/ODQ+)” value [2] was 7.72.
For `O=C(O)CCCCN(Cc1ccc(C(=O)O)cc1)CC(OCc1ccc(CCc2ccccc2)cc1)c1ccc(Cl)s1` (stereo not drawn) [Example 27, 4-{[N-(4-Carboxybutyl)-N-[2-[4-(2-phenylethyl)benzyloxy]-2-(5-chloro-2-thienyl)ethyl]amino]methyl}benzoic acid], the Emax at 10 µM [1, 3] was 118%, the Emax at 10 µM [1, 4] was 187% and the “EC50 Ratio (ODQ−/ODQ+)” value [2] was 2.66.
In the case of `Cc1ccc(C(CN(CCCCC(=O)O)Cc2ccc(C(=O)O)c(F)c2)OCc2ccc(CCc3ccccc3)cc2)s1` (stereo not drawn) [Example 28, 4-{[N-(4-Carboxybutyl)-N-[2-[4-(2-phenylethyl)benzyloxy]-2-(5-methyl-2-thienyl)ethyl]amino]methyl}-2-fluorobenzoic acid], the Emax at 10 µM [1, 3] is reported as 114%, the Emax at 10 µM [1, 4] is reported as 98% and the “EC50 Ratio (ODQ−/ODQ+)” value [2] is reported as 2.99.
For `O=C(O)CCCCN(Cc1ccc(C(=O)O)cc1)C[C@H](OCc1ccc(CCc2ccccc2)cc1)c1cccc(Cl)c1` [Example 29, (−)-4-{[N-(4-Carboxybutyl)-N-[(2R)-2-(3-chlorophenyl)-2-[4-(2-phenylethyl)benzyloxy]ethyl]amino]methyl}benzoic acid], the Emax at 10 µM [1, 3] was 110%, the Emax at 10 µM [1, 4] was 98.2% and the “EC50 Ratio (ODQ−/ODQ+)” value [2] was 9.66.
`O=C(O)CCCCN(Cc1ccc(C(=O)O)cc1)C[C@H](OCc1ccc(CCc2ccccc2)cc1)c1ccccc1` [Example 32, (−)-4-{[N-(4-Carboxybutyl)-N-[(2R)-2-[4-(2-phenylethyl)benzyloxy]-2-phenylethyl]amino]methyl}benzoic acid] was tested, and the Emax at 10 µM [1, 3] was 87.7%, the Emax at 10 µM [1, 4] was 128% and the “EC50 Ratio (ODQ−/ODQ+)” value [2] was 7.31.
With `O=C(O)CCCCN(Cc1ccc(C(=O)O)cc1)C[C@H](OCc1ccc(Oc2ccc(Cl)cc2)cc1)c1ccccc1` [Example 42, (−)-4-{[N-(4-Carboxybutyl)-N-[(2R)-2-[4-(4-chlorophenyloxy)benzyloxy]-2-phenylethyl]amino]methyl}benzoic acid] the Emax at 10 µM [1, 3] was 127%, the Emax at 10 µM [1, 4] was 143% and the “EC50 Ratio (ODQ−/ODQ+)” value [2] was 8.40.
With `O=C(O)CCCCN(Cc1ccc(C(=O)O)cc1)C[C@H](OCc1ccc(CCc2ccccc2)cc1F)c1ccccc1` [Example 45, (−)-4-{[N-(4-Carboxybutyl)-N-[(2R)-2-[2-fluoro-4-(2-phenylethyl)benzyloxy]-2-phenylethyl]amino]methyl}benzoic acid] the Emax at 10 µM [1, 3] was 123%, the Emax at 10 µM [1, 4] was 109% and the “EC50 Ratio (ODQ−/ODQ+)” value [2] was 4.26.
